Laboratory results as given in patent US12233105B1, “Methods for storing and warming purified corticotropin compositions” (ANI Pharmaceuticals, Inc., priority 2022, dated 2025).

Tested on: THP-1 Blue, Raw Blue, HEK-blue hTLR3, HEK-Blue hTLR4, HEK-Blue hNOD2
Test: Innate immune response activation assays in TLR/NOD2 reporter cell lines
Format: cell-based
Conditions: 5 cell lines covering TLR and NOD2 expression; 3 PPQ lots; highest drug substance concentration tested 10 μg/mL
Protocol: Method development, qualification, and testing for activation of innate immune response was performed. The innate immune assays performed compared 3 PPQ lots. The work was conducted using 5 cell lines to cover TLR and NOD2 expression (THP-1 Blue, Raw Blue, HEK-blue hTLR3, HEK-Blue hTLR4, HEK-Blue hNOD2). […] The highest drug substance concentration tested was 10 μg/mL. A dose of the sterile preparation of purified corticotropin at 80 U is, equivalent to approximately 1 mg of drug substance per total body weight of subject.

CCCc1nc2c(N)nc3ccccc3c2s1 [CL075]
dose response for activation of innate immune response: robust dose responses

CC(=O)N[C@@H]1[C@@H](O[C@H](C)C(=O)N[C@@H](C)C(=O)N[C@H](CCC(=O)O)C(N)=O)[C@H](O)[C@@H](CO)O[C@H]1O [MDP]
dose response for activation of innate immune response: robust dose responses
